Measured values from patent US9510598B2, “Nitrogen-containing heterocyclic compounds for plant disease control” (BAYER CROPSCIENCE AG, priority 2012, dated 2016).

Assay type: physicochemical
Conditions: HPLC on reversed phase columns, method [a]: pH 2.7, 0.1% formic acid in water / acetonitrile, linear gradient 10% to 95% acetonitrile

| Compound | log P |
| --- | --- |
| C=C(C)C1(C(=O)NC2CCC2)CC(c2ccc3ncc(Br)cc3c2)=NO1 (stereo not shown) [compound 521] | 3.61[a] |
| CCC1C(c2ccc3ncc(Br)cc3c2)=NOC1(C)C(=O)NC(C)C (stereo not shown) [compound 283] | 3.76[a] |
| C#CCOc1coc(CNC(=O)C2(C)CC(c3ccc4ncc(C#C)cc4c3)=NO2)cc1=O (stereo not shown) [compound 233] | 1.98^[a] |
| CC(=O)C1(C(=O)NCc2cnc(C)cn2)CC(c2ccc3ncc(Br)cc3c2)=NO1 (stereo not shown) [compound 584] | 2.37[a] |
| C#Cc1cnc2ccc(C3=NOC(C)(C(=O)NCc4ncccc4OC)C3)cc2c1 (stereo not shown) [compound 645] | 2.01[a] |
| Cc1cc(C2=NOC(C)(C(=O)NC3CCC3)C2)cc2cc(Br)cnc12 (stereo not shown) [compound 579] | 3.71[a] |
| C#Cc1cnc2ccc(C3=NOC(C)(C(=O)NC(C#N)c4ccccc4)C3)cc2c1 (stereo not shown) [compound 324] | 2.88[a] |
| COC1(C(=O)NC(C)C)CC(c2cc(C)c3ncc(Br)cc3c2)=NO1 (stereo not shown) [compound 608] | 3.37[a] |
| COc1cccnc1CNC(=O)C1(C)CC(c2ccc3ncc(Br)cc3c2)=NO1 (stereo not shown) [compound 644] | 2.26[a] |
| C#Cc1cnc2ccc(C3=NOC(C)(C(=O)NCc4cnccc4OC)C3)cc2c1 (stereo not shown) [compound 672] | 1.27[a] |
| C#Cc1cnc2ccc(C3=NOC(C)(C(=O)N(OC)C(C)C)C3)cc2c1 (stereo not shown) [compound 650] | 3.15[a] |
| CCOCCCNC(=O)C1(C2CC2)CC(c2ccc3ncc(Br)cc3c2)=NO1 (stereo not shown) [compound 270] | 3.21[a] |
| CCCn1cc(CNC(=O)C2(C(C)=O)CC(c3ccc4ncc(Br)cc4c3)=NO2)c(C)n1 (stereo not shown) [compound 586] | 2.80[a] |
| Cc1cccc(C(NC(=O)C2(C)CC(c3ccc4ncc(Br)cc4c3)=NO2)C(F)(F)F)c1 (stereo not shown) [compound 358] | 4.36[a] |
| CC(NC(=O)C1(C)CC(c2ccc3ncc(Br)cc3c2)=NO1)c1cccc2ccccc12 (stereo not shown) [compound 340] | 4.09[a] |
| CC1(C(=O)NC(c2cccc(Cl)c2)C(F)(F)F)CC(c2ccc3ncc(Br)cc3c2)=NO1 (stereo not shown) [compound 360] | 4.39[a] |
| C#Cc1cnc2ccc(C3=NOC(C)(C(=O)NCc4cn(C5CCC5)nc4C)C3)cc2c1 (stereo not shown) [compound 632] | 2.63[a] |
| C#Cc1cnc2ccc(C3=NOC(C)(C(=O)NC(COc4ccc(F)cc4)C4CC4)C3)cc2c1 (stereo not shown) [compound 318] | 3.58[a] |
| CCCSc1cnc2ccc(C3=NOC(C)(C(=O)NCc4cn(CC)nc4C)C3)cc2c1 (stereo not shown) [compound 264] | 2.76^[a] |
| C=C(C)C1(C(=O)NCc2cn(CCC)nc2C)CC(c2ccc3ncc(Br)cc3c2)=NO1 (stereo not shown) [compound 519] | 3.17[a] |

Second part, the molecule after the results:

| log P | Compound |
| --- | --- |
| 3.08[a] | C#CC(C)(C)NC(=O)C1(C)CC(c2ccc3ncc(Br)cc3c2)=NO1 (stereo not shown) [compound 624] |
| 3.11[a] | C#CC1(C(=O)NC2CCC2)CC(c2ccc3ncc(Br)cc3c2)=NO1 (stereo not shown) [compound 625] |
| 2.86[a] | CCn1cc(CNC(=O)C2(C)CC(c3ccc4ncc(Br)cc4c3)=NO2)c(Br)n1 (stereo not shown) [compound 636] |
| 2.56[a] | C#Cc1cnc2ccc(C3=NOC(C)(C(=O)NCc4cn(CC)nc4Br)C3)cc2c1 (stereo not shown) [compound 634] |
| 4.06^[a] | CC1(C(=O)NCC#Cc2ccc(Cl)cc2)CC(c2ccc3ncc(Br)cc3c2)=NO1 (stereo not shown) [compound 248] |
| 1.99^[a] | CC1(C(=O)NC2COC2)CC(c2ccc3ncc(Br)cc3c2)=NO1 (stereo not shown) [compound 235] |
| 2.05[a] | C#Cc1cnc2ccc(C3=NOC(C)(C(=O)NCCF)C3)cc2c1 (stereo not shown) [compound 640] |
| 3.37[a] | C#Cc1cnc2ccc(C3=NOC(C)(C(=O)NC(C)CC(C)C)C3)cc2c1 (stereo not shown) [compound 316] |
| 2.78[a] | CCn1cc(CNC(=O)C2(C)CC(c3ccc4ncc(Br)cc4c3)=NO2)c(SC)n1 (stereo not shown) [compound 638] |
| 2.57[a] | C#CC1(C(=O)NCc2cn(CC)nc2C)CC(c2ccc3ncc(Br)cc3c2)=NO1 (stereo not shown) [compound 626] |

Same assay, conditions: HPLC on reversed phase columns, method [a]: pH 2.7, 0.1% formic acid in water and acetonitrile, linear gradient 10% to 95% acetonitrile

| Compound | log P |
| --- | --- |
| C#Cc1cnc2ccc(C3=NOC(C)(C(=O)NCc4cc(CC)ccn4)C3)cc2c1 (stereo not shown) [compound 745] | 1.64[a] |
| C#Cc1cnc2ccc(C3=NOC(C)(C(=O)NCc4ccnc(OC(C)CC)c4)C3)cc2c1 (stereo not shown) [compound 760] | 3.06[a] |
| CCn1cc(CNC(=O)C2(C)CC(c3ccc4ncc(Br)c(Cl)c4c3)=NO2)c(C)n1 (stereo not shown) [compound 735] | 2.69[a] |
| C#Cc1cnc2ccc(C3=NOC(C)(C(=O)NCc4cnccc4C)C3)cc2c1 (stereo not shown) [compound 682] | 1.29[a] |
| C#Cc1cnc2ccc(C3=NOC(C)(C(=O)NCc4cncc(OC)n4)C3)cc2c1 (stereo not shown) [compound 791] | 2.25[a] |
| CC1(C(=O)N/C(=N/O)c2cccnc2)CC(c2ccc3ncc(Br)cc3c2)=NO1 (stereo not shown) [compound 741] | 2.10[a] |
| C#Cc1cnc2ccc(C3=NOC(C)(C(=O)NCc4cncc(Cl)n4)C3)cc2c1 (stereo not shown) [compound 789] | 2.41[a] |
| COC1(C(=O)Nc2cccc(CON=C(c3ccccc3)c3noc(=O)n3C)n2)CC(c2ccc3ncc(Br)cc3c2)=NO1 (stereo not shown) [compound 711] | 4.39[a] |
| C#Cc1cnc2ccc(C3=NOC(OC)(C(=O)NCCC4CCCO4)C3)cc2c1 (racemic) [compound 818] | 2.11[a] |
| COC1(C(=O)NC2CCN(C)CC2)CC(c2ccc3ncc(I)cc3c2)=NO1 (stereo not shown) [compound 702] | 1.67[a] |
| C#Cc1cnc2ccc(C3=NOC(C)(C(=O)NCc4cccnc4F)C3)cc2c1 (stereo not shown) [compound 783] | 2.23[a] |
| CC1(C(=O)NCCc2ccc(C(F)(F)F)cc2Cl)CC(c2ccc3ncc(Br)cc3c2)=NO1 (stereo not shown) [compound 769] | 4.21[a] |
| C#Cc1cnc2ccc(C3=NOC(C)(C(=O)N(Cc4cc(F)cc5c4C(C)(C)CCC5)C4CC4)C3)cc2c1 (racemic) [compound 816] | 5.54[a] |

Results, then the molecule that gave them:

| log P | Compound |
| --- | --- |
| 1.95[a] | CC1(C(=O)NCc2cncnc2)CC(c2ccc3ncc(Br)cc3c2)=NO1 (stereo not shown) [compound 692] |
| 1.60[a] | Cc1cccc(CNC(=O)C2(C)CC(c3ccc4ncc(Br)cc4c3)=NO2)n1 (stereo not shown) [compound 690] |
| 1.78[a] | COc1cncc(CNC(=O)C2(C)CC(c3ccc4ncc(Br)cc4c3)=NO2)c1 (stereo not shown) [compound 698] |
| 3.96[a] | C#CC(CC)(CC)NC(=O)C1(C)CC(c2ccc3ncc(Br)cc3c2)=NO1 (stereo not shown) [compound 717] |
| 3.17[a] | CC1(C(=O)NCCC2CC2)CC(c2ccc3ncc(Br)cc3c2)=NO1 (stereo not shown) [compound 710] |
| 1.88[a] | CCc1cccc(CNC(=O)C2(C)CC(c3ccc4ncc(Br)cc4c3)=NO2)n1 (stereo not shown) [compound 746] |
| 2.98[a] | CC1(C(=O)NCC2CC(F)(F)C2)CC(c2ccc3ncc(Br)cc3c2)=NO1 (stereo not shown) [compound 754] |
| 1.43[a] | Cc1ccncc1CNC(=O)C1(C)CC(c2ccc3ncc(Br)cc3c2)=NO1 (stereo not shown) [compound 693] |
| 3.25[a] | CC1(C(=O)NCC2CCC2)CC(c2ccc3ncc(Br)cc3c2)=NO1 (stereo not shown) [compound 775] |
| 1.91[a] | CC1(C(=O)NCc2cccnc2C#N)CC(c2ccc3ncc(Br)cc3c2)=NO1 (stereo not shown) [compound 814] |
| 3.44[a] | CC(C)(C)Sc1cc(CNC(=O)C2(C)CC(c3ccc4ncc(Br)cc4c3)=NO2)ccn1 (stereo not shown) [compound 797] |
| 2.15[a] | CC1(C(=O)NCCC#N)CC(c2ccc3ncc(Br)cc3c2)=NO1 (stereo not shown) [compound 720] |
| 2.51[a] | CC1(C(=O)NCc2cccnc2F)CC(c2ccc3ncc(Br)cc3c2)=NO1 (stereo not shown) [compound 786] |
| 3.15[a] | CC(C)CNC(=O)C1(C)CC(c2ccc3ncc(Br)cc3c2)=NO1 (stereo not shown) [compound 743] |
| 1.88[a] | CC1(C(=O)NCc2cccnc2O)CC(c2ccc3ncc(Br)cc3c2)=NO1 (racemic) [compound 817] |

Same assay, conditions: method [a]: HPLC/LC-MS on reversed phase at pH 2.7, 0.1% formic acid in water / acetonitrile, gradient 10% to 95% acetonitrile

| Compound | log P |
| --- | --- |
| CCn1cc(CNC(=O)C23CC2C(c2ccc4ncc(Br)cc4c2)=NO3)c(C)n1 (racemic) [compound 399] | 2.44[a] |
| CCOCCCNC(=O)C12CC1C(c1ccc3ncc(Br)cc3c1)=NO2 (racemic) [compound 401] | 2.84[a] |
| CCn1cc(CNC(=O)C2(C)CC(c3ccc4ncc(N)cc4c3)=NO2)c(C)n1 (racemic) [compound 452] | 1.12[a] |
| CCn1cc(CNC(=O)C2(C)CC(c3ccc4nc(C#N)c(I)cc4c3)=NO2)c(C)n1 (racemic) [compound 431] | 2.57[a] |
| CC1(C)OCC(CNC(=O)C23CC2C(c2ccc4ncc(Br)cc4c2)=NO3)O1 (racemic) [compound 400] | 2.75[a] |
| CCn1cc(CNC(=O)C2(C)ON=C(c3ccc4ncc(Br)cc4c3)C2C)c(C)n1 (racemic) [compound 385] | 2.55[a] |
| CCn1cc(CNC(=O)C2(C)CC(c3ccc4nc(Cl)c(I)cc4c3)=NO2)c(C)n1 (racemic) [compound 432] | 2.94[a] |

Same assay, conditions: method [a]: HPLC/LC-MS on reversed phase at pH 2.7, 0.1% formic acid in water / acetonitrile, linear gradient 10% to 95% acetonitrile

| Compound | log P |
| --- | --- |
| CC(C)NC(=O)C1(Cc2ccccc2)CC(c2ccc3ncc(Br)cc3c2)=NO1 (stereo not shown) [compound 57] | 3.87^[a] |
| CC1(C(=O)NCc2ccc3[nH]ccc3c2)CC(c2ccc3ncc(Br)cc3c2)=NO1 (stereo not shown) [compound 116] | 2.92^[a] |
| CC1(C(=O)NCc2ccccc2Oc2ccccc2)CC(c2ccc3ncc(Br)cc3c2)=NO1 (stereo not shown) [compound 207] | 4.32^[a] |
| C#Cc1cnc2ccc(C3=NOC(C)(C(=O)NCCc4ccc(OC(F)(F)F)cc4)C3)cc2c1 (stereo not shown) [compound 209] | 3.55^[a] |
| CC1(C(=O)NCc2ccnc(N3CCCC3)c2)CC(c2ccc3ncc(Br)cc3c2)=NO1 (stereo not shown) [compound 158] | 1.53^[a] |

Now from value to molecule:

| log P | Compound |
| --- | --- |
| 3.68^[a] | CC1(C(=O)NCCc2ccc(Cl)cc2)CC(c2ccc3ncc(Br)cc3c2)=NO1 (stereo not shown) [compound 111] |
| 4.01^[a] | CCCCC1(C(=O)NC(C)C)CC(c2ccc3ncc(Br)cc3c2)=NO1 (stereo not shown) [compound 73] |

Same assay, conditions: reversed phase HPLC column; HPLC reversed phase, pH 2.7, 0.1% formic acid in water / acetonitrile, linear gradient 10% to 95% acetonitrile; calibration with alkan-2-ones; read-out: log P (HCOOH)

| Compound | chromatographic logP |
| --- | --- |
| O/N=C(\Cl)c1ccc2ncc(I)cc2c1 [3-Iodo-N-hydroxyquinoline-6-carboximidoyl chloride] | 2.63 |
